Measured values from patent publication US20210349099A1, “CANCER BIOMARKERS AND METHODS OF USE THEREOF” (X4 Pharmaceuticals, Inc., priority 2017, published 2021).

Assays:
[1] = tested on: solid tumors, e.g. advanced or metastatic melanoma; assay: Biomarker findings in tumors; assay type: in vivo
Excerpt: Granzyme B is associated with cell death/apoptosis mediated by cytotoxic T lymphocytes (CTLs), natural killer (NK) cells, and cytotoxic T cells. Accordingly, in some embodiments, the biomarker is an observed increase in granzyme B expression in a tumor relative to a control. In some embodiments, the cancer is a solid tumor such as advanced or metastatic melanoma. […] Accordingly, in some embodiments, the biomarker is an observed increase in CD8^+ T cells and/or CD4^+ T cells in a tumor relative to a control. In other embodiments, the biomarker is an increase in the ratio of CD8^+ T cells to Treg cells. In some embodiments, the increase is observed by immunohistochemistry or expression levels of one or both of CD8A and CD8B. In some embodiments, an increase in CD8^+ T cells and/or CD4^+ T cells or CD8^+ T cells/Treg ratio in a tumor sample from a patient who has undergone treatment with […]-001 or X4-136 correlates with an increased likelihood that the patient will benefit from continued treatment with […]-001 alone or in combination with an immunotherapeutic agent, e.g., a checkpoint inhibitor such as a PD-1 antagonist. In some embodiments, the PD-1 antagonist is selected from nivolumab and pembrolizumab, or a biosimilar or variant of such PD-1 antagonists. In some embodiments, the checkpoint inhibitor is nivolumab. In some embodiments, the checkpoint inhibitor is a nivolumab biosimilar or variant. In some embodiments, the checkpoint inhibitor is pembrolizumab. In some embodiments, the checkpoint inhibitor is a pembrolizumab biosimilar or variant. In some embodiments, the tumor is a solid tumor such as advanced or metastatic melanoma. […] In some embodiments, the biomarker is IDO1. In some embodiments, the biomarker is CXCL10. In some embodiments, the biomarker is CXCL9. In some embodiments, the biomarker is HLA-DRA. In some embodiments, the biomarker is STAT1. In some embodiments, the biomarker is IFN-γ. In some embodiments, the biomarker is two or more of IDOL, CXCL10, CXCL9, HLA-DRA, STAT1 and IFN-γ. In some embodiments, the biomarker is three or more of IDO1, CXCL10, CXCL9, HLA-DRA, STAT1 and IFN-γ. In some embodiments, the biomarker is four or more of IDOL, CXCL10, CXCL9, HLA-DRA, STAT1 and IFN-γ. In some embodiments, the biomarker is five or more of IDOL, CXCL10, CXCL9, HLA-DRA, STAT1 and IFN-γ. In some embodiments, the biomarker is all of IDOL, CXCL10, CXCL9, HLA-DRA, STAT1 and IFN-γ. In some embodiments, the biomarker is an increase of all of IDO1, CXCL10, CXCL9, HLA-DRA, STAT1 and IFN-γ. In some embodiments, an increase in one, two, three, four, five, or all of IDOL, CXCL10, CXCL9, HLA-DRA, STAT1 and IFN-γ in a tumor sample from a patient who has undergone treatment with […]-001 correlates with an increased likelihood that the patient will benefit from continued treatment with […]-001 alone or in combination with an immunotherapeutic agent, e.g., a checkpoint inhibitor such as a PD-1 antagonist. In some embodiments, the PD-1 antagonist is selected from nivolumab and pembrolizumab, or a biosimilar or variant of such PD-1 antagonists. In some embodiments, the checkpoint inhibitor is nivolumab. In some embodiments, the checkpoint inhibitor is a nivolumab biosimilar or variant. In some embodiments, the checkpoint inhibitor is pembrolizumab. In some embodiments, the checkpoint inhibitor is a pembrolizumab biosimilar or variant. In some embodiments, the tumor is a solid tumor such as advanced or metastatic melanoma. In some embodiments, the biomarker or the use thereof is one of those described in Ayers et al., Journal of Clinical Investigation 2017, 127(8), 2930-2940 [29] (“Ayers et al. (2017)”) or WO 2016/094377, each of which is hereby incorporated by reference. […] Accordingly, in some embodiments, the biomarker is maintenance or decrease of Treg levels in a tumor relative to a control. In some embodiments, the biomarker is the level of FoxP3 expression, which serves as a means to determine the Treg level. […]

[2] = tested on: metastatic melanoma human tumor sample; assay: Single-marker IHC of melanoma patient tumor samples (HALO); assay type: in vivo
Procedure: Single-marker IHC (CD8 and granzyme B) and multiplex IHC staining were analyzed using HALO™ spatial analysis tools, and the entire tumor area of each specimen was scored. (See Tunstall, “Quantifying Immune Cell Distribution in the Tumor Microenvironment Using HALO™ Spatial Analysis Tools,” Application Note, July […], (Indica Labs), accessed Nov. 1, 2017, on https://thepathologist.com/fileadmin/issues/App_Notes/0016-010-halo-app-note.pdf). See also Sherry et al., “Utilizing multiplex chromogenic IHC and digital image analysis to evaluate immune cell content and spatial distribution within NSCLC tumor tissue” Cancer Research (2017) 77(13) Supp: Abstract 2937. CD8 was measured using a mouse monoclonal antibody (DAKO catalog #M7103, lot #20029542). A Leica Bond RX Autostainer was used following standard protocols. For granzyme B, a mouse monoclonal antibody was used (DAKO #M7235). A Leica Bond RX Autostainer was used following standard protocols.
Single-marker IHC was also used to measure CD3, FoxP3, and Ki67. For CD3, a rabbit polyclonal antibody was used (DAKO catalog #A0452, lot #20020069). A Leica Bond RX Autostainer was used following standard protocols. For FoxP3, a mouse monoclonal antibody was used (Abcam catalog #ab20034, lot #GR251424-1). A Leica Bond RX Autostainer was used following standard protocols. […]

[3] = solid tumors, e.g. advanced or metastatic melanoma

## NCCCCN(Cc1nc2ccccc2[nH]1)[C@H]1CCCc2cccnc21 [X4P-001]
[1]; in vivo
  CTL signature gene expression in tumor samples or the tumor microenvironment: increase
  IFN-γ gene signature (panel of IFN-γ related genes): increase
  PD-L1 expression in tumor samples and the tumor microenvironment: increase
[1]; [3]
  granzyme B (GZMB) expression in cancers: increases
  levels of Treg cells: without significantly increasing
  levels of macrophages in the tumor: without significantly modulating
  observed numbers of CD8+ T cells and/or CD4+ T cells in cancers: increases
[1]; tumor samples and the tumor microenvironment
  levels of the VISTA panel of biomarkers: modulate
[2]; patient #5, post-dosing vs pre-dosing
  CD8 expression: visibly increased
[2]; patient #5, post-dosing, pre-dosing 1045
  CD8+ T cells density in tumor microenvironment: 1370 per square millimeter
